In BindingDB's records for doi:10.1007/bf02246453 (University of Turku, 1996):
Counter-ions that a name gives are not always drawn.

Molecular target: 5-hydroxytryptamine receptor 2A (Rattus norvegicus, UniProt P14842)
Sequence (P14842 whole entry): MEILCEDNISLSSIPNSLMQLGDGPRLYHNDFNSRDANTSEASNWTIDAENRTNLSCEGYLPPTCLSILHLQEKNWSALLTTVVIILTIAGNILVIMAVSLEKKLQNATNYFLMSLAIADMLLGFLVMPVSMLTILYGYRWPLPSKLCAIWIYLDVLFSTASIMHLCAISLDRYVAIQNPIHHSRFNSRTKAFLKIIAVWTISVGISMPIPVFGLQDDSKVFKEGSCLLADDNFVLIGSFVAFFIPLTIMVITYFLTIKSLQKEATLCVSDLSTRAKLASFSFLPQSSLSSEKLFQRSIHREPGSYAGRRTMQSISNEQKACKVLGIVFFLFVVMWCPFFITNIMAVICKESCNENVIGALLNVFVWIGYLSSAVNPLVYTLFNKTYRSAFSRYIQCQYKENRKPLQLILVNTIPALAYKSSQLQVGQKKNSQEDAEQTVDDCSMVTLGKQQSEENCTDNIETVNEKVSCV

Row | Structure (SMILES) | Ki [nM]
1 | CN(C)CCC=C1c2ccccc2CCc2ccccc21 | 4.3

Molecular target: T1, 5-hydroxytryptamine receptor 2C (Rattus norvegicus, UniProt P08909)
T1 sequence (P08909 whole entry): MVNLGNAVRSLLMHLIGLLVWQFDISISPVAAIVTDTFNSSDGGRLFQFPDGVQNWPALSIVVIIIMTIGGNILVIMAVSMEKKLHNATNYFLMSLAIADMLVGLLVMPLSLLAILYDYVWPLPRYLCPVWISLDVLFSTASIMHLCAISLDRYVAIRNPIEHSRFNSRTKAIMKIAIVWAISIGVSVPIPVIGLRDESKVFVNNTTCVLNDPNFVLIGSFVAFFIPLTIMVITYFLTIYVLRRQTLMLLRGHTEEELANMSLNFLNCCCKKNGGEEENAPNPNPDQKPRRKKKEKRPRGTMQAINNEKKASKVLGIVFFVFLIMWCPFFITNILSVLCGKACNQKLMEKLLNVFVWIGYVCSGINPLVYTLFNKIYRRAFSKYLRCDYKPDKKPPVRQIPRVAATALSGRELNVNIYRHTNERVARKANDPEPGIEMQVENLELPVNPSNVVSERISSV

Row | Structure (SMILES) | Ki [nM]
2 | CN(C)CCC=C1c2ccccc2CCc2ccccc21 | 4.3
3 | CNCCCN1c2ccccc2CCc2ccccc21 [Desmethylimipramine] | 244
4 | NCC[C@H](Oc1ccc(C(F)(F)F)cc1)c1ccccc1 [NORFLUOXETINE] | 157
5 | CNCCC=C1c2ccccc2CCc2ccccc21 [NORTRIPTYLINE] | 8.5
6 | CN(C)C/C=C(/c1ccc(Br)cc1)c1cccnc1 [cis-[3-(4-Bromo-phenyl)-3-pyridin-3-yl-allyl]-dimethyl-amine;HCl] | 1000

Continued, values first:

Row | Ki [nM] | Structure (SMILES)
7 | 94 | CN(C)CCCN1c2ccccc2CCc2ccccc21
8 | 193 | O=c1n(CCCN2CCN(c3cccc(Cl)c3)CC2)nc2ccccn12 [2-{3-[4-(3-chlorophenyl)piperazin-1-yl]propyl}[1,2,4]triazolo[4,3-a]pyridin-3(2H)-one]
9 | 206 | CN(C)CCCn1c2c(c3ccccc31)CCCCCC2 [CAS_5560-72-5]
10 | 269 | CN(C)CCCC1(c2ccc(F)cc2)OCc2cc(C#N)ccc21 (stereo unspecified) [CITALOPRAM HYDROBROMIDE]
11 | 1000 | C#CCN(C)CCCOc1ccc(Cl)cc1Cl [US8633208, Clorgyline]
